# Experimental data taken from patent publication US7148204B2, “Antisense modulation of bcl-x expression” (Isis Pharmaceuticala, Inc., priority 1998, dated 2006).
# In the oligonucleotide strings, read from the 5' end, every base follows the letter of its sugar. An asterisk marks phosphorothioate; unmarked linkages are phosphodiester. Other units and linkages are bracketed, terminal groups are in braces. A string of capitals states the bases alone. e = 2'-O-(2-methoxyethyl) (MOE); [5mC] = 5-methylcytosine; d = 2'-deoxy (DNA)
# Assays:
# CEM-C7 cells = test: Viable cell counts of CEM cells (propidium iodide exclusion, flow cytometry); assay type: cell-based, human; conditions: CEM cells; for viability by propidium iodide exclusion: 20 μM electroporation
# Method: CEM-C7 cells (Norman et al., 1978), a glucocortocoid sensitive clone of the human T-lymphoblastic cell line CEM, were cultured between 5×10^4 to 10^6 cells/ml in RPMI 1640 medium containing 10% heat-inactivated fetal bovine serum (FBS), streptomycin, penicillin G, 15 mM HEPES, 2 mM sodium pyruvate, at 37° C. in a humid, 5% CO2 incubator. Viable cell counts were performed by propidium iodide staining and flow cytometry.
# CEM-C7 cells were electroporated with the indicated concentrations of oligonucleotides at 150 volts, 1,700 microFaraday (μF), and a resistance setting of 5 with a BTX electroporation apparatus (Genetronics, San Diego, Calif.) in 2-mm gap cuvettes containing 5×10^6 cells in 200 μl RPMI plus 20% FBS on ice. Cells were left on ice for 10 minutes, then plated in 5 ml complete media.
# bcl-xl protein = test: Immunoblot of bcl-xl protein in CEM cells; assay type: cell-based, human
# Method: Postnuclear detergent lysates were prepared as described by Reed et al. (Cancer Res., 1991, 51, 6529–6538), and the protein concentration was determined using a Bradford method protein assay kit (Bio-Rad, Hercules, Calif.). Protein (20 μg) was loaded in each lane, followed by electrophoresis on a 12% sodium dodecyl sulfate-polyacrylamide gel, followed by immunoblotting (Winston et al., 1993). The primary antibody was a 0.4 μg/ml dilution of the mouse monoclonal anti-human bcl-2 (clone 124, Dako, Carpinteria, Calif.), a 4.0 μg/ml dilution of the rabbit polyclonal anti-human bcl-xs/l (Dako), or a 0.3 μg/ml dilution of rabbit polyclonal anti-human Bax (N-20, Santa Cruz Biotechnology, Santa Cruz, Calif.). For development and STORM fluorescent imaging, the secondary antibody was peroxidase-conjugated sheep anti-mouse or donkey anti-rabbit (Amersham, Little Chalfort, UK). Chemiluminescence imaging and quantification were preformed using the STORM instrument and ImageQuant software (Molecular Dynamics, Sunnyvale, Calif.).
# bcl-xl mRNA = test: RNase protection assay, bcl-xl mRNA in A549 cells; assay type: cell-based, human; conditions: RPA
# Source text: (§1) The ribonuclease (RNase) protection assay is a sensitive and specific method for quantitating expression levels (Zinn, et al., Cell, 1983, 34:865–79). The method is based on the hybridization of a target RNA to an in vitro transcribed ^32P-labeled anti-sense RNA probe from a DNA template. RNase treatment follows, resulting in degradation of single-stranded RNA and excess probe. The probe and target RNA are resolved by denaturing polyacrylamide gel electrophoresis with the “protected” probe visualized using autoradiography or beta imaging equipment. Template sets can be purchased (PharMingen Inc., San Diego Calif.) which contain a series of biologically relevant templates, each of distinct length and each representing a sequence in a distinct mRNA species. Each template set is capable of detecting up to 11 unique gene messages in a single reaction mix in addition to one or more housekeeping genes, L32 and GAPDH, which serve as internal controls. These template sets allow for multiple determinations to be made from a single sample. Multi-probe RPA can be performed on total RNA preparations derived by standard methods, without further purification of poly-A+ RNA.
# (§2) Oligonucleotides were evaluated for their respective effects on bcl-xs and bcl-xl mRNA levels along with total bcl-x mRNA levels, using the RIBOQUANT™ RNase protection kit (Pharmingen, San Diego Calif.). All assays were performed according to manufacturer's protocols. Briefly, multi-probe DNA template sets were used to generate antisense RNA transcripts radiolabeled with […]. The template set used for apoptosis genes was the human hAPO-2 set. These radiolabeled probes were hybridized overnight with typically 10 μg of total cellular RNA. The reaction mixture was then digested with single-strand RNases to generate the protected fragments which were electrophoresed through a 5% acrylamide/urea gel. Protected bands were visualized and quantitated using a PhosphorImager (Molecular Dynamics, Sunnyvale Calif.).
# (§3) Human bcl-x has two forms, a long form known as bcl-xl and a short form known as bcl-xs. […] The protein of bcl-xl is similar in size and structure to bcl-2, and could inhibit cell death upon growth factor withdrawal. The protein of bcl-xs is 63 amino acids shorter than bcl-xl. It could inhibit the bcl-2 function, thus promoting programmed cell death (apoptosis). Oligonucleotides were evaluated for their respective effects on bcl-xs and bcl-xl mRNA levels along with total bcl-x mRNA levels, using the RIBOQUANT™ RNase protection kit (Pharmingen, San Diego Calif.). All assays were performed according to manufacturer's protocols.
# (§4) These oligonucleotides were tested for their inhibitory effects on bcl-xl and bcl-xs mRNA levels in A549 cells, as detected by RPA analysis. Oligonucleotide concentration was 200 nM.
# bcl-xs mRNA = test: RNase protection assay, bcl-xs mRNA in A549 cells; assay type: cell-based, human; design: concentration or dose not given beside the values; conditions: RPA
# Source text: as §1, §2, §3
# human bcl-x mRNA = test: Northern blot analysis of bcl-x mRNA levels in A549 cells; assay type: cell-based; conditions: 200 nM chimeric oligonucleotide
# Method: Eighteen hours after antisense treatment, cell monolayers were washed twice with cold PBS and lysed in 1 mL RNAZOL™ (TEL-TEST “B” Inc., Friendswood, Tex.). Total RNA was prepared following manufacturer's recommended protocols. Twenty micrograms of total RNA was fractionated by electrophoresis through 1.2% agarose gels containing 1.1% formaldehyde using a MOPS buffer system (AMRESCO, Inc. Solon, Ohio). RNA was transferred from the gel to HYBOND™-N+ nylon membranes (Amersham Pharmacia Biotech, Piscataway, N.J.) by overnight capillary transfer using a Northern/Southern Transfer buffer system (TEL-TEST “B” Inc., Friendswood, Tex.). RNA transfer was confirmed by UV visualization. Membranes were fixed by UV cross-linking using a STRATALINKER™ UV Crosslinker 2400 (Stratagene, Inc, La Jolla, Calif.).
# Membranes were probed using QUICKHYB™ hybridization solution (Stratagene, La Jolla, Calif.) using manufacturer's recommendations for stringent conditions with an 822-base pair bcl-x specific probe prepared by PCR from bases 33–855 of human bcl-xl sequence (Boise et al., 1993, Cell 74:597–608; GenBank accession no. L20121). To normalize for variations in loading and transfer efficiency membranes were stripped and probed for glyceraldehyde-3-phosphate dehydrogenase (GAPDH) RNA (Clontech, Palo Alto, Calif.). Hybridized membranes were visualized and quantitated using a PHOSPHORIMAGER™ and IMAGEQUANT™ Software V3.3 (Molecular Dynamics, Sunnyvale, Calif.). Data was normalized to GAPDH levels in untreated controls.
# Oligonucleotides were tested by Northern blot analysis as described in Example 14. Oligonucleotides were tested in A549 cells at a concentration of 400 nM. The results are Table 2:
# Oligonucleotides were tested by Northern blot analysis as described in Example 14. Chimeric oligonucleotides were in A549 cells at a concentration of 200 nM. Where present, “N.D.” indicates “not determined”.
# bcl-xs/bcl-xl mRNA ratio = test: RNase protection assay, bcl-xs/bcl-xl mRNA ratio in A549 cells; assay type: cell-based, human; conditions: A549 cells, RPA; for bcl-xs/bcl-xl (%): no oligo 17.56; for bcl-xs/bcl-xl* (change from the control ratio 17.56): no oligo = 1
# Source text: as §1, §2, §3, §4
# total bcl-x mRNA = test: RNase protection assay, total bcl-x mRNA in A549 cells; assay type: cell-based, human; design: % CONTROL total bcl-x: concentration or dose not given beside the values; conditions: RPA
# Source text: as §1, §2, §3
# HUVEC = test: Apoptosis of HUVEC (hypodiploid cells by flow cytometry); assay type: cell-based, human; conditions: for increase in cellular DNA fragmentation over background: agent alone at low dose: staurosporine 2 nM, C6-ceramide 5 μM
# Method: Human umbilical vein endothelial cells (HUVEC) were obtained from Clonetics (San Diego Calif.) and cultivated in endothelial growth medium (EGM) supplemented with 10% fetal bovine serum. Cells were used between passages 2 and 5 and were used at approximately 80% confluency. Cells were washed three times with pre-warmed (37° C.) Opti-MEM™. Oligonucleotides were premixed with 10 μg/ml Lipofectin™ in Opto-MEM™ at an oligonucleotide concentration of 50 nM ISIS 16009. Cells were incubated with oligonucleotide for 4 hours at 37° C. after which the medium was removed and replaced with standard growth medium. Treatment with C6-ceramide (Calbiochem, San Diego Calif.), staurosporine (Calbiochem), or z-VAD.fmk (Calbiochem), if any, was done 24 hours after oligonucleotide treatment. […] Apoptotic cells with fragmented DNA were identified by flow cytometry analysis of hypodiploid cells.
# SEM-K2 xenograft cells = test: VP-16-induced apoptosis of xenograft cells (CPP32 DEVD-pNA cleavage, light scatter); assay type: in vivo, human SEM-K2 cells in SCID-NOD mice
# Method: Xenografts were removed after sacrifice and mechanically dispersed into large volumes of medium. Leukocytes were purified by density gradient centrifugation and washed with medium before resuspending in 1 ml volumes at 1–5×10^6 cells/ml. Cells were incubated at 37° C. in 95% humidified air/5% CO2 for 2 hours prior to induction of apoptosis with 20 μg/ml VP-16 (Etoposide) over 24 hours. Each xenograft cell suspension treated with VP-16 was paired with a respective negative control. Apoptosis was assessed nonspecifically using quantification of light scatter changes; reduction in side scatter (due to chromatin condensation) and reduction in forward scatter (due to cell shrinkage) are early changes associated with apoptosis. Bimodal population distributions consisting of apoptotic and non-apoptotic cells could be measured respectively allowing estimation of an apoptotic index for treated and negative control. Fold increase in apoptosis was calculated from their ratio. More specific determination of apoptosis was achieved using the Apo-Alert Caspase-3 Colorimetric Assay Kit (Clontech, Palo Alto Calif.). This is a DEVD-specific caspase assay, a quantitative assay for the activity of caspase-3, a member of the caspase family thought to mediate apoptosis in most mammalian cell types. […] DEVD-dependent protease activity is assessed by detection of the free AFC or pNA cleaved from the substrates. […]
# bcl-x = test: SCID-human leukemia model, bcl-x expression in SEM-K2 xenografts; assay type: in vivo, human SEM-K2 cells in SCID-NOD mice; conditions: 14-day s.c. infusion 100 μg/day (5 mg/kg/day), quantitative flow cytometry, n=3
# Method: 10^7 SEM-K2 cells in exponential phase of growth were injected subcutaneously into 8 SCID-NOD mice as a bolus (suspended in sterile saline). Engraftment and tumor formation occurred over a 2–3 week period. Micro Alzet pumps (Alza, Newark Del.) capable of delivering a continuous subcutaneous infusion over 14 days were used to deliver a dose of 100 μg per day (equivalent to 5 mg/kg) of ISIS 16009 and scrambled control ISIS 15691 into two groups of three animals, respectively. The remaining two animals received vehicle (sterile saline) only.
# Mean reductions in expression of approximately 90% (n=3) compared to control (p<0.01) were measured using quantitative flow cytometry. This was compared to statistically insignificant (<20%, p<0.3) reductions in bcl-x expression by scrambled control oligonucleotide ISIS 15691 (n=3).
Compound,% CONTROL bcl-xl (bcl-xl mRNA),% CONTROL bcl-xs (bcl-xs mRNA),bcl-xs/bcl-xl (%) (bcl-xs/bcl-xl mRNA ratio),bcl-xs/bcl-xl* (change from the control ratio 17.56) (bcl-xs/bcl-xl mRNA ratio),% CONTROL total bcl-x (total bcl-x mRNA),also measured
"5′-TCACATTGGCGCTTAGCCGT-3′ (chemistry not given here) [ISIS 16971, reference compound]",,,,,,viability by propidium iodide exclusion (CEM-C7 cells; 48 hours): 70%; viability by propidium iodide exclusion (CEM-C7 cells; 72 hours): 82%; viable cell count at the highest concentration (CEM-C7 cells; 20 hours after electroporation): started to decrease; level of bcl-xl protein (bcl-xl protein): no effect
16012 (antisense e[5mC]*e[5mC]*eA*eG*e[5mC]*dC*dG*dC*dC*dG*dT*dT*dC*dT*dC*e[5mC]*eT*eG*eG*eA) [compound 16012],63%,48%,13.17%,0.75,61%,% CONTROL (bcl-x mRNA levels) (human bcl-x mRNA): 30%; % INHIB (bcl-x mRNA levels) (human bcl-x mRNA): 70%
16013 (antisense eT*eA*eG*eA*eG*dT*dT*dC*dC*dA*dC*dA*dA*dA*dA*eG*eT*eA*eT*e[5mC]) [compound 16013],83%,60%,12.46%,0.71,82%,% CONTROL (bcl-x mRNA levels) (human bcl-x mRNA): 85%; % INHIB (bcl-x mRNA levels) (human bcl-x mRNA): 15%
23174 (antisense e[5mC]*e[5mC]*eG*eG*e[5mC]*e[5mC]*eA*e[5mC]*eA*eG*eT*e[5mC]*eA*eT*eG*e[5mC]*e[5mC]*e[5mC]*eG*eT) [compound 23174],67%,56%,14.93%,0.85,66%,
23175 (antisense eT*eG*eT*eA*eG*e[5mC]*e[5mC]*e[5mC]*eA*eG*e[5mC]*eA*eG*eA*eA*e[5mC]*e[5mC]*eA*e[5mC]*eG) [compound 23175],82%,52%,11.44%,0.65,78%,
CCCCCCCCCCCCC/C=C/[C@@H](O)[C@H](CO)NC(=O)CCCCC [C6-ceramide],,,,,,increase in cellular DNA fragmentation over background (HUVEC): did not cause a significant increase
CN[C@@H]1C[C@H]2O[C@@](C)([C@@H]1OC)n1c3ccccc3c3c4c(c5c6ccccc6n2c5c31)C(=O)NC4 [staurosporine],,,,,,increase in cellular DNA fragmentation over background (HUVEC): did not cause a significant increase
COC(=O)CC[C@H](NC(=O)[C@H](CC(=O)OC)NC(=O)OCc1ccccc1)C(=O)N[C@H](C(=O)N[C@@H](CC(=O)OC)C(=O)CF)C(C)C [z-DEVD.fmk],,,,,,"apoptosis caused by bcl-x inhibition, or bcl-x plus staurosporine or ceramide (HUVEC; caspase inhibitor treatment): prevented"
GACATCCCTTTCCCCCTCGG (chemistry not given here) [ISIS 15691],,,,,,"apoptotic index (light scatter) (SEM-K2 xenograft cells; 20 μg/ml VP-16): not seen; change in VP-16-induced apoptosis (SEM-K2 xenograft cells; 20 μg/ml VP-16, n=3): very little change; mean reduction in bcl-x expression (bcl-x): < 20%"
